Values after ≈ are worked out from the molar mass of the structure shown. Where a SMILES comes first, the peptide text is derived from it.
Assays:
[1] = test system: Escherichia coli ATCC 25922; test: microbe, parasite or virus in culture; details: ATCC25922, read-out: MIC E. coli
[2] = test system: Staphylococcus aureus ATCC 25923; test: microbe, parasite or virus in culture; details: ATCC25923, read-out: MIC S. aureus
[3] = test system: Staphylococcus aureus ATCC 25923; details: ATCC 25923
[4] = test system: Escherichia coli ATCC 25922; details: ATCC 25922
[5] = test system: Escherichia coli ATCC 25922; details: for MBC E. coli: ATCC 25922; for bacteriostatic or bactericidal: in respect of E. coli, high MBC but low MIC indicates bacteriostatic
[6] = test system: fresh human red blood cells; assay type: cell-based
Description: The hemolytic activities of the peptides were determined using fresh human red blood cells. 8 ml blood was taken from a healthy person. 4 ml blood was transferred to a polycarbonate tube containing heparin to a final concentration of 10 U/ml, and the remaining 4 ml blood was transferred to a glass tube containing EDTA with final concentration of 15% EDTA. The erythrocytes were isolated from heparin-treated blood by centrifugation in 1500 rpm for 10 min and washed three times with phosphate-buffered saline (PBS) to remove plasma and buffy coat. The cell pellet was resuspended in PBS to make the final volume of 4 ml. The peptide was diluted to a concentration of 2 mg/ml and 0.1 mg/ml. The peptide was further diluted to the concentrations as stated in Table 15. For each tube PBS was added first, then RBCs and peptide solutions. The hematocrit in the blood treated with EDTA was determined after 30 min with Sysmex K-1000, and the resuspended RBCS were diluted into 10% hematocrit. RBCs in PBS (1%) with and without peptides (Table 15) were incubated in a shaker at 37° for 1 hour and then centrifuged at 4000 rpm for 5 min. The supernatant were carefully transferred to new polycarbonate tubes and the absorbance of the supernatant was measured at 540 nm. […]

[7] = test system: Staphylococcus aureus ATCC 25923; details: ATCC 25923; remark: listed apart in the source
[8] = test system: MRSE ATCC 27626; details: ATCC 27626
[9] = test system: MRSA ATCC 33591; details: ATCC 33591
[10] = test system: E. coli; test: Electronmicrograph of treated bacteria; assay type: cell-based; details: FIG. 2
Text: FIG. 1 is an electronmicrograph of normal (untreated) E. coli, and
FIG. 2 is an electronmicrograph of E. coli treated with one of the peptides described herein, WRWRWR [SEQ ID NO:1].

MIC [1] [µg/mL] | MIC [2] [µg/mL] | SMILES | MIC S. aureus [3] | MIC E. coli [4] [µg/mL] | MBC E. coli [5] [µg/mL] | bacteriostatic or bactericidal [5] | haemolysis EC50 [6] [µg/mL] | MBC S. aureus [7] | further results
35 (≈ 79.1 µM) | 35 (≈ 79.1 µM) | CC(C)(C)c1cc(C(C)(C)C)c2[nH]c(C(C)(C)C)c(C[C@H](N)C(=O)NCCCCN)c2c1 [H-Tbt-Dab-H] |  |  |  |  |  |  | 
15 (≈ 36.2 µM) | 15 (≈ 36.2 µM) | CC(C)(C)c1cc(C(C)(C)C)c2[nH]c(C(C)(C)C)c(C[C@H](N)C(=O)NCCN)c2c1 [H-Tbt-Dae-H] |  |  |  |  |  |  | 
15 (≈ 31.9 µM) | 15 (≈ 31.9 µM) | CC(C)(C)c1cc(C(C)(C)C)c2[nH]c(C(C)(C)C)c(C[C@H](N)C(=O)NCCCCCCN)c2c1 [H-Tbt-Dah-H] |  |  |  |  |  |  | 
 |  | COC(=O)[C@H](CCCNC(=N)N)NC(=O)[C@H](Cc1c(C(C)(C)C)[nH]c2c(C(C)(C)C)cc(C(C)(C)C)cc12)NC(=O)[C@@H](N)CCCNC(=N)N [RTbtR OMe, H-Arg-Tbt-Arg-OMe] | 5 (5) μg/ml | 25 (≈ 35.8 µM) | 50 (≈ 71.5 µM) | bactericidal | 720 | 5 (5) μg/ml | 
 |  | COC(=O)[C@H](CCCNC(=N)N)NC(=O)[C@@H](N)Cc1c(C(C)(C)C)[nH]c2c(C(C)(C)C)cc(C(C)(C)C)cc12 [TbtR OMe, H-Tbt-Arg-OMe] |  |  | 200 (≈ 368 µM) | bacteriostatic | 360 | 10 (10) μg/ml | MIC MRSE [8]: 4.0 µg/mL (≈ 7.37 µM); MIC MRSA [9]: 4.0 µg/mL (≈ 7.37 µM)
 |  | N=C(N)NCCC[C@H](NC(=O)[C@H](Cc1c[nH]c2ccccc12)NC(=O)[C@H](CCCNC(=N)N)NC(=O)[C@H](Cc1c[nH]c2ccccc12)NC(=O)[C@H](CCCNC(=N)N)NC(=O)[C@@H](N)Cc1c[nH]c2ccccc12)C(N)=O [WRWRWR] (H-WRWRWR-NH2) | 7.5 µg/mL (≈ 7.18 µM) | 7.5 (≈ 7.18 µM) | 15 (≈ 14.4 µM) |  |  | 10 µg/mL (≈ 9.58 µM) | appearance of treated E. coli in electronmicrograph [10]: void of cytoplasmic matter and their cell membranes (as well as cell wall components) are destroyed

Reference: patent US9115169B2, “Method of treating tumors” (Lytix Biopharma AS, priority 2000, dated 2015)
